Measurements from patent publication US7132547B2, “Preventives/remedies for urinary disturbance” (priority 2001, dated 2006).

How the values were obtained:
[1] = target: T1, human erythrocyte-derived acetylcholinesterase (Homo sapiens, UniProt P22303); assay: Measurement of acetylcholinesterase inhibitory activity (acetylthiocholine / Ellman method); format: biochemical; details: 50% inhibition concentration, repeated at least three times, read-out: AchE: IC50
T1 construct: Human erythrocyte-drived acetylcholinesterase (Sigma) was dissolved in distilled water; purchased Sigma; host or cells: human erythrocytes (natural source)
Description: a) Measurement of Acetylcholinesterase Inhibitory Activity
Acetylcholinesterase inhibitory activity of Example compounds was measured using human erythrocyte-derived acetylcholinesterase by an acetylthiocholine method (Ellman method).
Human erythrocyte-drived acetylcholinesterase (Sigma) was dissolved in distilled water to the concentration of 0.2 IU/mL to obtain an enzyme specimen. 20 μL of a drug solution, 30 μL of 80 mM Tris-HCL (pH 7.4), 50 μL of an enzyme specimen and 50 μL of 5 mM 5,5-dithio-bis (2-nitrobenzoic acid)(Sigma) were dispensed on a 96-well microplate, and this was shaken for 10 seconds. 50 μL of 4 mM acetylthiocholine iodide (Sigma) was added, this was shaken again and, immediately after, increase in absorbance at 414 nm was measured at 30 second intervals for 10 minutes. Enzyme activity was measured by the following equation: R=5.74×10^−7×ΔA (wherein R represents enzyme activity (mol), and ΔA represents increase in absorbance at 414 nm)
Regarding each compound, the experiment was repeated at least three times to obtain 50% inhibition concentration (IC50). According to the similar method to the above-mentioned, acetylcholinesterase inhibitory activity of distigmine which is a known acetylcholinesterase inhibitor was measured.

Hartley male guinea pigs = assay: Effect on blood pressure in anesthetized guinea pigs; format: in vivo, guinea pig; details: tamsulosin 0.01 mg/kg, Example 20 0.1 mg/kg
Description: Hartley male guinea pigs (Slc) weighing 300 to 350 g was anesthetized with urethane (1.2 g/kg), and retained, a cervical region was incised to expose a left common carotid artery. A polyethylene tube filled with physiological saline containing heparin (10 U.I./ml) was inserted into an artery, and blood pressure was measured with a pressure transducer. A cannulae for administering test compound was inserted into a vein at an end of left hind leg, and a test compound dissolved in distilled water was administered therethrough at 0.5 mL/kg. The blood pressure was recorded at 20 Hz using an analogue data inputting apparatus (MP-100, BIOPAC Systems), and analyzed by analyzing software (AcqKnowledge 3.5.3, BIOPAC Systems). Example compound and tamsulosin were studied for a dose at which effects were recognized in the aforementioned test a (Pressure Flow Study), and an average blood pressure just before administration of test compound and an average blood pressure 15 minutes after administration were measured. Data were statistically treated by Paired t-test.

T1 sequence (P22303 32-617 isoform P22303-2 limits assumed): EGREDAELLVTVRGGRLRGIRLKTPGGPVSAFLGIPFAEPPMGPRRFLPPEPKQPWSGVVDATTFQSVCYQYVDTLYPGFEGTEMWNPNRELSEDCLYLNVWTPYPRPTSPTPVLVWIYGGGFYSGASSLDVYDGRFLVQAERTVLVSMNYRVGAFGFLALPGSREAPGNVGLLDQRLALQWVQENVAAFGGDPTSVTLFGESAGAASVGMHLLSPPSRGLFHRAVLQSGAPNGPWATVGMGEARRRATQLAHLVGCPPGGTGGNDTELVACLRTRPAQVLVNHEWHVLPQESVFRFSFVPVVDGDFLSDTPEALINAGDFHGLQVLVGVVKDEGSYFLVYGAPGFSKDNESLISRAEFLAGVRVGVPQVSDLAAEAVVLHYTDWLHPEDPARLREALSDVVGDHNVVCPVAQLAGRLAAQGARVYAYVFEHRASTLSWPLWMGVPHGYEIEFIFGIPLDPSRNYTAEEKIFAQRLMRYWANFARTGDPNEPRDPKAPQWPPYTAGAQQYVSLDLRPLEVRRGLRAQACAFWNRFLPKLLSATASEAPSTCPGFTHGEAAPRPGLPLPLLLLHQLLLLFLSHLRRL

Q: What does the source list for `COc1ccccc1CCNCCCCCC(=O)c1cc2c3c(c1)CCN3C(=O)CC2.Cl` [Example 20, 8-(6-[[2-(2-Methoxyphenyl)ethyl]amino]hexanoyl]-1,2,5,6-tetrahydro-4H-pyrrolo[3,2,1-ij]quinolin-4-one hydrochloride]?
A: IC50 [1]: 0.179 µM; Blood pressure, after administration (Hartley male guinea pigs; average blood pressure 15 minutes after i.v. administration): 54.6 ± 2.8 mmHg; Blood pressure, before administration (Hartley male guinea pigs; average blood pressure just before i.v. administration): 53.5 ± 3.6 mmHg
